Non-standard residues stand in square brackets, D forms with d. Residues, ends and D or L forms follow the SMILES beside them. *: point of attachment. Hexanoyl = CCCCCC(=O)*; Ahx = NCCCCCC(=O)O
What was measured:
[1] = system: IL-6; assay: IL-6 release in LPS-challenged THP-1 macrophages (HTRF); assay type: cell-based, human; details: 1 µM, 20 min pretreatment, LPS 50 ng/mL 24 h, vs LPS + vehicle
Protocol: To determine the effect of fosgo-AM on LPS-induced cytokine release, we sought to determine the levels of interleukin-1β (IL-1β), interleukin-6 (IL-6), and tumor necrosis factor-α (TNF-α) in LPS-challenged THP-1–differentiated macrophages in the presence and absence of fosgo-AM. THP-1 monocytes were grown at 37 °C, 5% CO2 in Roswell Park Memorial Institute (RPMI) medium + 10% FBS until approximately 80% confluent. Cells were seeded in polystyrene-treated 96-well cell culture plates at approximately 50,000 cells/well in 100-µL complete media. 100 µL Phorbol myristate acetate was then added to each well for a final concentration of 100 ng/mL. The plate was then incubated for 3 days at 37 °C, 5% CO2 to prime the monocytes into macrophages. […] For cytokine quantification, cell culture supernatant was assayed by HTRF kits to assess levels of IL-1β (Human IL-1β kit, #62HIL1BPEG, Cisbio, Codolet, France) and IL-6 (Human IL-6 kit, 62HIL06PET, Cisbio, Codolet, France), and by ELISA (Human TNF-α ELISA kit, KHC3011, ThermoFisher, Waltham, Massachusetts) to determine the levels of TNF-α. […] Fluorescence emission at 2 different wavelengths (665 nm and 620 nm) were measured on an Envision plate reader (PerkinElmer, Waltham, Massachusetts), and HTRF ratio of the acceptor and donor emission signals for each well was calculated as follows: HTRF ratio = (665 nm/620 nm) × 10,000. […]

[2] = Fosgo-AM solubility (turbidity in PBS); assay type: physicochemical; details: 1% DMSO, 37 °C, 2 h
Protocol: A fosgo-AM dilution series was produced in DMSO. Compound stocks were added in triplicate to a 96-well plate containing PBS, resulting in 1% DMSO concentration, and were incubated at 37 °C for 2 h. Turbidity in the sample wells was determined by absorbance at 620 nm.

maximum aqueous solubility [2]: less than 50 μg/mL
SMILES: CCCCCC(=O)N[C@@H](Cc1ccc(O)cc1)C(=O)N[C@H](C(=O)NCCCCCC(N)=O)[C@@H](C)CC [fosgo-AM] (Hexanoyl-Tyr-Ile-[Ahx]-NH2)
IL-6 release [1]: significant decrease
